Source: patent US8071810B2, “C5a receptor antagonists” (Jerini AG, priority 2005, dated 2011)

Legend:
[1] = molecular target: T1, human C5a receptor (CD88) (Homo sapiens, UniProt P21730); experiment: C5a induced enzyme (glucosaminidase) release assay in RBL cells expressing the human C5a receptor (Example 28); type: cell-based; settings: inhibition of C5a induced enzyme release, RBL cells with human C5aR; read-out: Activity-range (antagonistic activity, IC50 enzyme release)
T1 construct: expressed in transfected cells; host or cells: rat basophilic leukemia (RBL) cells, stably transfected
T1 sequence (P21730 1-350): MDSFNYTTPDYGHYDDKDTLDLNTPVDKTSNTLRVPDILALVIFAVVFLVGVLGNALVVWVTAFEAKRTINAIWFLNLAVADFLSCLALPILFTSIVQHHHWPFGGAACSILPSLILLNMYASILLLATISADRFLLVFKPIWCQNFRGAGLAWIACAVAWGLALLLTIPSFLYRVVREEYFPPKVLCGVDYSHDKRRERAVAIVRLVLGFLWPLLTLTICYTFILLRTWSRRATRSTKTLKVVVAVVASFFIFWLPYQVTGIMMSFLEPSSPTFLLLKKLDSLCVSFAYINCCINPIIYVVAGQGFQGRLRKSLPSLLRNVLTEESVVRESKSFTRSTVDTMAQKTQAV
Method in brief: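 Rat basophilic leukemia (RBL) cells expressing human C5a receptor, at 2×10^6 cells/ml, primed with cytochalasin B, then incubated with test compound 10 min at 37 °C.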

[2] = tested on: E. coli induced oxidative burst in human whole blood; experiment: E. coli induced oxidative burst in human whole blood (Phagoburst kit, Example 26); type: cell-based; settings: read-out: IC50 for the inhibition of the E. coli induced oxidative burst in human whole blood
Method: The whole blood assay is carried out according to the instructions from the Phagoburst-Kit (Orpegen Pharma). 50 μg/ml of Refludan is used to inhibit blood clotting (Mollnes et al. 2002 Blood 100: 1869). Freshly drawn, anticoagulated blood is cooled over ice and 100 μl thereof are added to 10 μl of the compound solution containing at most 1.3% of DMSO. The mixture is incubated for 10 minutes at 37° C. After this the samples are put on ice again and 20 μl of opsonisated E. coli suspension (10^9 cells/ml) is added followed by 10 minutes of incubation at 37° C. 20 μl of the substrate are added to the cells followed by another 10 minutes of incubation at 37° C. After this 2 ml of lysis buffer are added to the cells, which are then kept at room temperature for 20 minutes. The cellular components are separated by centrifugation at 250×g for 5 minutes. The supernatant is discarded and 3 ml of washing solution are added to the pellet. The cells are centrifuged again and the resulting pellet is taken up in 200 μl DNA staining solution. The neutrophiles are analysed by means of a FACS device (FACSCalibur, Becton-Dickinson) according to the parameters given in the manual. […] It can be seen that, due to the determined activity, the compounds of this invention are suited to be used as therapeutics in human.

| Structure (SMILES) | IC50 [1] [nM] | IC50 [2] [nM] |
| --- | --- | --- |
| CCc1c(N)cc(Cl)c(CC)c1NC(=O)N(Cc1ccc(Cl)cc1)c1ccc(CC(F)(F)F)cc1 [compound 103, 3-(3-amino-5-chloro-2,6-diethyl-phenyl)-1-(4-chloro-benzyl)-1-[4-(2,2,2-trifluoro-ethyl)-phenyl]-urea] | 60 to 200 | 800 |
| CCc1ccc(N(Cc2ccc(C)nc2)C(=O)Nc2c(CC)c(N)cc(Cl)c2CC)cc1 [compound 106, 3-(3-amino-5-chloro-2,6-diethyl-phenyl)-1-(4-ethyl-phenyl)-1-(6-methyl-pyridin-3-ylmethyl)-urea] | 60 to 200 | 1600 |
| CCc1ccc(N(C(=O)Nc2c(CC)c(N)cc(Cl)c2CC)C(C)c2ccc3c(c2)ncn3C)cc1 (stereo not drawn) [compound 122, 3-(3-amino-5-chloro-2,6-diethyl-phenyl)-1-(4-ethyl-phenyl)-1-[1-(1-methyl-1H-benzoimidazol-5-yl)-ethyl]-urea] | 60 to 200 | 3500 |
